Data from PubChem BioAssay (NCI).
Where “and” joins values, the source holds several entries; their conditions need not be identical. Equal values may be shown once.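 Where inhibition never reached the appropriate level, the endpoint shown equals the highest concentration tested. Otherwise, values were interpolated linearly from a five-concentration, 48-hour dose response in 96-well plates. GI50 marks 50% less growth. TGI marks complete inhibition of growth.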

Key:
Experiment in all cases: NCI tumour cell line growth inhibition, 48 h
MDA-N = tested on: MDA-N
KM20L2 colon = tested on: KM20L2 colon
M19-MEL melanoma = tested on: M19-MEL melanoma
RXF-631 renal = tested on: RXF-631 renal
DLD-1 colon = tested on: DLD-1 colon
DMS 273 small cell lung = tested on: DMS 273 small cell lung
SNB-78 CNS = tested on: SNB-78 CNS
XF 498 CNS = tested on: XF 498 CNS
HOP-18 NSCLC = tested on: HOP-18 NSCLC
SN12K1 renal = tested on: SN12K1 renal
P388/ADR leukemia = tested on: P388/ADR leukemia

Compound	TGI (MDA-N)	TGI (KM20L2 colon)	TGI (M19-MEL melanoma) [µM]	TGI (RXF-631 renal)	TGI (DLD-1 colon) [µM]	TGI (DMS 273 small cell lung) [µM]	TGI (SNB-78 CNS)	TGI (XF 498 CNS)	TGI (HOP-18 NSCLC)	further results
O=S(=O)(c1cccc(C(F)(F)F)c1)N1c2ccccc2-n2cccc2C1c1cccnc1 (configuration not stated)	> 100 µM									
COC(=O)OCC1OC(N2C(=O)NC(=O)C(I)C2N=[N+]=[N-])CC1OC(=O)OC (configuration not stated)		> 100 µM	> 100	> 100 µM	> 100	> 100	> 100 µM	> 100 µM		
COc1ccccc1-c1cc2c3c(nc4ccccc42)C(=O)c2cccnc2-c3n1	28.5 µM									GI50 (MDA-N): 14.9 µM
O=c1/c(=C/c2cccc3ccccc23)sc2nc3ccccc3n12		> 100 µM	> 100	> 100 µM	> 100	> 100	> 100 µM		> 100 µM	
COc1ccc(OC)c(/C=C/[N+](=O)[O-])c1	25.3 µM	9.34 µM	5.96	10.3 µM	8.65	6.99	58.8 µM	7.02 µM	3.85 µM	
COC(=O)c1cnc2nc(N3CCOCC3)[nH]n2c1=O		> 100 µM	> 100			> 100	> 100 µM			
[Cu+2].[Cu+2].[O-]c1ccccc1C=Nc1ccccc1[O-].[O-]c1ccccc1C=Nc1ccccc1[O-]		28 µM	3.69		16.6	13.6	36.4 µM	7.16 µM	16.6 µM	GI50 (KM20L2 colon): 8.16 µM; GI50 (M19-MEL melanoma): 1.86 µM; GI50 (HOP-18 NSCLC): 2.99 µM; GI50 (DLD-1 colon): 3.95 µM; GI50 (DMS 273 small cell lung): 2.54 µM; GI50 (SNB-78 CNS): 13.5 µM; GI50 (XF 498 CNS): 2.67 µM
COC1/C=C/O[C@@]2(C)Oc3c(C)c(O)c4c(O)c(cc(O)c4c3C2=O)NC(=O)/C(C)=C\C=C\[C@H](C)C(O)[C@@H](C)[C@@H](O)[C@@H](C)[C@H](OC(C)=O)[C@@H]1C (some centres not stated)	39.9 µM and 27.8 µM	30.5 µM	26.1		30.4	32.7	95 µM	29.3 µM	38.8 µM	TGI (SN12K1 renal): 33.5 µM; TGI (P388/ADR leukemia): 59 µM; GI50 (MDA-N): 19.2 µM
O=CC1=CCCC2(C1)OCCO2			> 100	> 100 µM	> 100	> 100	> 100 µM	> 100 µM		
CCCCN(CC)C(=O)C(=O)C1C(=O)Nc2ccccc2S1=O (configuration not stated)		> 100 µM	> 100		> 100	> 100	> 100 µM		> 100 µM	
COc1cc2c(cc1OC)C1c3ccccc3C(C#N)(C2)N(C(=O)c2ccccc2)C1O (configuration not stated)		> 100 µM	> 100	> 100 µM	> 100	> 100	> 100 µM	95.9 µM	> 100 µM	
CN(C)CCNC(=O)c1ccc2ccc3cccnc3c2n1		72 µM			> 84.4	22.6	> 34.8 µM		> 100 µM	
CC(=O)[CH-]C(=O)c1ccccc1.CC(=O)[CH-]C(=O)c1ccccc1.[Nd+3].[OH-].[OH3+]		> 100 µM	> 100		> 100				> 100 µM	GI50 (KM20L2 colon): > 100 µM; GI50 (M19-MEL melanoma): > 100 µM; GI50 (HOP-18 NSCLC): > 100 µM; GI50 (DLD-1 colon): > 100 µM
CC(=O)O[C@]1(C(C)=O)CC[C@H]2[C@@H]3C[C@H](C)C4=CC(=O)C=C[C@]4(C)[C@@]3(F)[C@@H](O)C[C@@]21C		> 100 µM	> 100		> 100	> 100	> 100 µM	> 100 µM		
O=C(NC1CCCCC1)c1c(O)[nH]c(=S)[nH]c1=O		> 100 µM	> 100	> 100 µM	> 100		> 100 µM		> 100 µM	
O=C(O)CSc1n[nH]c(/C=C/c2ccccc2)n1		> 100 µM	> 100		> 100	> 100	> 100 µM	> 100 µM	> 100 µM	
CC(NC(=O)c1ccccc1)C(=O)N(Cc1ccccc1)Cc1ccccc1 (configuration not stated)		90.4 µM	67.7		> 100	47.1	96.6 µM			
N=C(N)/N=C(/C=C/c1ccccc1)CC1OC(=O)c2ccccc21 (configuration not stated)		> 100 µM	> 100		> 100	> 100		> 100 µM		
O=C1CCC2(c3ccc(F)cc3)Nc3ccccc3N12 (configuration not stated)		> 100 µM	> 100	> 100 µM	> 100		> 100 µM	> 100 µM		
O=c1cc2n(c(=O)[nH]1)C1OC(C(O)C1O)[C@@H]2CCO (some centres not stated)		> 100 µM	> 100		> 100	> 100	> 100 µM			
Cc1c(Cl)ccc2c1NC(=O)C2(O)CC(=O)c1ccc(Cl)cc1Cl (configuration not stated)	> 50 µM	> 50 µM	> 50	> 50 µM		> 50	> 50 µM	> 50 µM		
COc1cc2c(cc1OC)C13CCN4CC5=CCOC(CC(=O)O)C(C5CC41)C3N2 (configuration not stated)	> 100 µM									

Compound	TGI (MDA-N)	TGI (KM20L2 colon)	TGI (M19-MEL melanoma) [µM]	TGI (RXF-631 renal)	TGI (DLD-1 colon) [µM]	TGI (DMS 273 small cell lung) [µM]	TGI (SNB-78 CNS)	TGI (XF 498 CNS)	TGI (HOP-18 NSCLC)	further results
O=C(Cn1ccnc1[N+](=O)[O-])N(CCO)CCO	> 250 µM	> 1250 µM	> 1250		> 1250	> 1250	> 1250 µM	> 58 µM	> 1250 µM	TGI (SN12K1 renal): > 1250 µM; TGI (P388/ADR leukemia): > 1250 µM
COc1cc(OC)c(-c2cc(=O)c3c(OC)c(OC)c(OC)c(OC)c3o2)cc1OC	> 100 µM									
COc1ccc(CC(=O)c2cc(OC)c(OC)cc2C)cc1OC		> 100 µM	> 100		> 100		> 100 µM	> 100 µM		
CN(C)c1c(Cl)c(=O)oc2c1ccc1nc(-c3ccccc3)sc12	> 100 µM									
O=C(/C=C/c1ccc(OCCCCCCCCCCOc2ccc(/C=C/C(=O)c3ccc(Cl)cc3)cc2)cc1)c1ccc(Cl)cc1		> 100 µM		> 100 µM	> 100	> 100	> 100 µM		> 100 µM	
COc1cc(OC)cc(N2CCC(c3c(N)nc(N)nc3Cl)CC2)c1		> 100 µM	> 100	> 100 µM	> 100	> 100	> 100 µM	> 100 µM		
Cc1cccc(C)c1NC(=O)CCC(=O)NNC(=O)c1cc(O)c2ccccc2c1		> 100 µM	> 100		> 100			> 100 µM	> 100 µM	
Cc1c(/C=C2\CC/C(=C\c3[nH]c(C(=O)OC(C)(C)C)c(C)c3C)C2=O)[nH]c(C(=O)OC(C)(C)C)c1C		> 100 µM	> 100		> 100	> 100	> 100 µM	> 100 µM	> 100 µM	
CCc1nc2c(O)ccc(O)c2nc1C		34 µM	19.4	34.3 µM	9.35	37	62.6 µM	39.4 µM	35.3 µM	
Cc1c(Cl)cccc1NC(=O)CC1Sc2ccccc2NC1=O (configuration not stated)	8.28 µM	> 85.9 µM and 55 µM	> 100	> 100 µM and 57.5 µM	> 100	> 100	99 µM and > 100 µM	68.9 µM and 50.2 µM	32.7 µM and 31.5 µM	GI50 (RXF-631 renal): 44.5 µM and 21 µM; GI50 (DMS 273 small cell lung): 10.6 µM and 26 µM
COc1ccc(CNc2cc(OC)cc(OC)c2)cc1		> 100 µM	> 100		> 100	> 100	87.7 µM and 86.6 µM	> 100 µM	> 100 µM	GI50 (KM20L2 colon): > 100 µM and 49 µM; GI50 (HOP-18 NSCLC): > 100 µM; GI50 (DLD-1 colon): 97.7 µM and 42.6 µM; GI50 (DMS 273 small cell lung): > 100 µM and 42.3 µM
CN(C)CCC1(C2=CCCC2)CC/C(=C\c2ccc3c(c2)OCO3)C1=O (configuration not stated)		28.6 µM	32.6	38.7 µM	38.3		35 µM		26.4 µM	
N#C/C(=C\c1ccc(CP(=O)(O)O)cc1)C(N)=O		> 100 µM	> 100		> 100	> 100		> 100 µM	> 100 µM	
CS(=O)(=O)C1S(=O)(=O)OCCOS1(=O)=O		> 100 µM	> 100	> 100 µM	> 100	> 100	> 100 µM	> 100 µM	> 100 µM	
O=C(Cc1ccccc1)Oc1ccc2c(-c3ccccc3)c(C(=O)Nc3ccc(Cl)cc3)c(=O)oc2c1		> 100 µM	> 100		> 100	> 100	> 100 µM	> 100 µM		
OCC(O)CC[CH2][Sn]([c]1ccccc1)([c]1ccccc1)[c]1ccccc1 (configuration not stated)		34.7 µM	31.1	28.7 µM	32	29.6	41.3 µM	35.9 µM	39.7 µM	GI50 (KM20L2 colon): 19.4 µM; GI50 (M19-MEL melanoma): 17.1 µM; GI50 (HOP-18 NSCLC): 24.9 µM; GI50 (RXF-631 renal): 13.6 µM; GI50 (DLD-1 colon): 16.5 µM; GI50 (DMS 273 small cell lung): 14.3 µM; GI50 (SNB-78 CNS): 19.6 µM; GI50 (XF 498 CNS): 19.5 µM
CC(C)(C)c1nc2c(o1)C(=Nc1ccccc1)c1ccccc1C2=O		85.8 µM	2.32	51.9 µM	38.1	11.3	43.7 µM	9.66 µM	20.9 µM	
O=C(NO)c1ccc(C(=O)NO)cc1	> 100 µM									
CC1OCC2OC(C)OC(C3C4=C(CC(C)(C)CC4=O)OC4=C3C(=O)CC(C)(C)C4)C2O1 (configuration not stated)	> 100 µM									
CC(C)C1CN1CC(O)Cn1ccnc1[N+](=O)[O-] (configuration not stated)	> 100 µM									
CC1=CC[C@@H]2[C@@H](CC[C@@]2(C)O)C(C)(C)[C@H]1CC[C@@H]1[C@@]2(C)CCC(=O)C(C)(C)O[C@@H]2CC[C@]1(C)O	57 µM									
